Results on eleven molecules are retold here after patent US20250115597A1, “TYK2 INHIBITORS AND COMPOSITIONS AND METHODS THEREOF” (LYNK PHARMACEUTICALS CO. LTD., priority 2021, published 2025).

Like-named read-outs stand apart in the source and are kept apart here. Bounds are passed on as bounds.

The test system of one series is pSTAT1. The experiment in a line: Phosphorylation inhibition of STAT in human whole blood, IFN-alpha stimulated (flow cytometry). The series is classed as cell-based. To be noted: 20 min; human whole blood, IFN-alpha 20 mins, CD3 cells; read-out: IC50 on pSTAT1 inhibition in h WB. The method, then:
Phosphorylation Inhibition of STAT in Human PBMC and Human Whole Blood Testing:
The inhibitory potential of test articles in human PBMC and human whole blood assay was evaluated by the method of flow cytometry.
IFN-alpha will activate JAK1 and TYK2 kinase in T cells by binding to IFN receptors, and then lead to phosphorylation of STAT1 and STAT2. The phosphorylated STAT1 enter nuclear and promote transcription and expression of IFN-gamma. To evaluate the efficacy of TYK2i in T cells, freshly prepared human PBMC or freshly collected human whole blood will be stimulated with certain unit of human IFN-alpha (Universal Type I IFN(1MU), R&D, 11200-2) for 20 mins in incubator. After stimulation, fix cells with Phosflow™ Fix Buffer I (BD, 557870), and then collect fixed cells by centrifugation (500 g, 8 min). Wash cells once with pre-cooled PBS, and then permeabilize cells with cold Perm Buffer III buffer (BD, 558050) for 45 mins on ice. Collect cells by centrifugation (600 g, 8 min) and washed twice with cold PBS. Stain cells with anti-human CD3 (FITC Mouse Anti-Human CD3, BD, 555332) and anti-pSTAT1_Y701(Alexa Fluor 647 Mouse Anti-Stat1 (pY701), BD, 612597) antibodies. Detect pSTAT1 by flow cytometry (CytoFlex S) and analyze data with FlowJo and GraphPad Prism 8 software. IC50 values of test articles were determined using 4-parameter logistic equation.

The target in a further series is T1, JAK1-JH2 domain (Homo sapiens, UniProt P23458).
T1 construct: IC50 on JH2 domain activity (nM)
T1 sequence (P23458 583-855 limits assumed): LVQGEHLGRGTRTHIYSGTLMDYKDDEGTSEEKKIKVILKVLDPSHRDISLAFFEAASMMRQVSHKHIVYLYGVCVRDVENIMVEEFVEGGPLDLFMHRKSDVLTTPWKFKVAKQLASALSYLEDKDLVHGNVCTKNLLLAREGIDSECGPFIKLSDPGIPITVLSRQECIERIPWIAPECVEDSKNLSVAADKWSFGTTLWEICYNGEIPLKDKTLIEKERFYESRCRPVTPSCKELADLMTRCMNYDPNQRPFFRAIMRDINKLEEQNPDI
The experiment in a line: Binding activity test for JH2 domain of JAK1 (Tb-antibody/tracer FRET). In a few lines: (§1)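 FRET read-out after 60 min at 25° C plus overnight at 4° C; tracer displacement detected via Tb-labelled antibody on the JH2 domain. Dose-response used 11 points at 3-fold dilution.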

Series [1] concerns the target T2, Ba/F3-FL-TYK2-P760L cells (Homo sapiens, UniProt P29597, P760L, cells depend on it).
T2 construct: BaF3-FL-T2P760L (nM)
The experiment in a line: Anti-proliferative assay, Ba/F3-FL-TYK2-P760L cells (Cell-Titer Glo). The class given is cell-based. To be noted: 72 h, read-out: BaF3-FL-T2P760L IC50. In a few lines: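 Compound exposure ran 72 h at 37 °C in 5% CO2 across nine 3-fold concentrations from a 20 μM top dose, added 24 h after seeding 2000 cells/well.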

The target in another series is T3, TYK2-JH2 domain (Homo sapiens, UniProt P29597).
T3 construct: IC50 on JH2 domain activity (nM)
T3 sequence (P29597 589-875 limits assumed): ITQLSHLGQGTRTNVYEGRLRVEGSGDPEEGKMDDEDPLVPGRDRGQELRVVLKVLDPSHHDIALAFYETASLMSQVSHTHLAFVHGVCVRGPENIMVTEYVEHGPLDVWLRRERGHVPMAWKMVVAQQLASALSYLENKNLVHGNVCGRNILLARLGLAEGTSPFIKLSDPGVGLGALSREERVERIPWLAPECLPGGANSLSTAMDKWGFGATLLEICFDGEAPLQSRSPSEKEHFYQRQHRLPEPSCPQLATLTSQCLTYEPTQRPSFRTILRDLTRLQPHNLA
The experiment in a line: Binding activity test for JH2 domain of TYK2 (Tb-antibody/tracer FRET). To be noted: for JAK1/TYK2 selectivity: ratio JAK1-JH2 IC50 / TYK2-JH2 IC50. In a few lines:
as §1

A short description of series [2]: Hepatocytes metabolic stability assay. The series is classed as in vitro ADME. The settings on record: cryopreserved hepatocytes, human hepatocytes, 1.0×10^6 cells/mL; for CLint scaled at 1 μM: read-out: Human hepatocyte Clint(liver); for half-life at 1 μM: read-out: Human hepatocyte stability T1/2. The method, then:
Hepatocytes Metabolic Stability Assay
The vials of cryopreserved hepatocytes were removed from the liquid nitrogen container and immediately immersed in a 37° C. water bath for approximately 2 min. The melted ice pellets were transferred into tubes containing 50 mL of pre-warmed thawing medium and mixed well by gently inverting the tubes, and then centrifuged at 500 rpm for 3 minutes at room temperature. The supernatants were discarded, and cell pellets were re-suspended by adding appropriate volumes of pre-warmed incubation medium. The cells viability of each species was determined using Trypan Blue exclusion. Add 50 μL of pre-warmed 2× dosing solution to the wells designated for different time points. Then 50 μL of cells suspension (2×10^6 cells/mL) were added into appropriate wells at corresponding time points of T15, T30, T60, T120. Start timing and put the plate in an incubator at 37° C. For TO sample, add 300 μL of ACN containing internal standard to the wells, mix gently, then add 50 μL of pre-warmed hepatocytes solution (2×10^6 cells/mL). The concentration of test compound was 1 μM and 1.0×10^6 cells/mL in the final incubation. At each corresponding time point, test and control compounds reaction samples were stopped by adding 300 μL acetonitrile containing internal standard. All sample plates were thoroughly mixed and centrifuged at 5000×g for 15 minutes. The supernatants were diluted at ratio of 1:1 with ultra-pure water for test and positive controls. Then submitted for LC-MS/MS analysis.
The analyte/internal standard peak area ratios were converted to percentage remaining with the following equation: […]
The in vitro elimination constant, k of test compounds and control compounds were calculated from a log linear plot of % Remaining versus time, then the half-life (T1/2), the estimation of the in vitro hepatic intrinsic clearance (CLint) values were calculated from substrate disappearance rate in hepatocytes incubation: […]

Series [3] is described as follows: Microsomal metabolic stability assay. The class given is in vitro ADME. The settings on record: pH 7.4, 0.5 mg/mL protein, 1 μM compound. The method, boiled down:
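Parent loss was tracked by LC/MS/MS at 0, 5, 15, 30 and 45 min, with half-life derived from the ln(% remaining)–time slope. Incubation at 37 °C, pH 7.4 phosphate/EDTA buffer: 0.5 mg/mL microsomes, 1 μM compound, NADPH-regenerated (2 mM).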

[4] abbreviates: dog liver microsomes, read-out: Dog LM Clint.
Where [5] appears, read: dog liver microsomes, read-out: Dog LM T½.
Setting [6] is: human liver microsomes, read-out: Human LM Clint.
[7] abbreviates: human liver microsomes, read-out: Human LM T½.
The mark [8] stands for this setting: rat liver microsomes, read-out: Rat LM Clint.
Setting [9] is: rat liver microsomes, read-out: Rat LM T½.

T2 sequence (P29597 whole entry P760L): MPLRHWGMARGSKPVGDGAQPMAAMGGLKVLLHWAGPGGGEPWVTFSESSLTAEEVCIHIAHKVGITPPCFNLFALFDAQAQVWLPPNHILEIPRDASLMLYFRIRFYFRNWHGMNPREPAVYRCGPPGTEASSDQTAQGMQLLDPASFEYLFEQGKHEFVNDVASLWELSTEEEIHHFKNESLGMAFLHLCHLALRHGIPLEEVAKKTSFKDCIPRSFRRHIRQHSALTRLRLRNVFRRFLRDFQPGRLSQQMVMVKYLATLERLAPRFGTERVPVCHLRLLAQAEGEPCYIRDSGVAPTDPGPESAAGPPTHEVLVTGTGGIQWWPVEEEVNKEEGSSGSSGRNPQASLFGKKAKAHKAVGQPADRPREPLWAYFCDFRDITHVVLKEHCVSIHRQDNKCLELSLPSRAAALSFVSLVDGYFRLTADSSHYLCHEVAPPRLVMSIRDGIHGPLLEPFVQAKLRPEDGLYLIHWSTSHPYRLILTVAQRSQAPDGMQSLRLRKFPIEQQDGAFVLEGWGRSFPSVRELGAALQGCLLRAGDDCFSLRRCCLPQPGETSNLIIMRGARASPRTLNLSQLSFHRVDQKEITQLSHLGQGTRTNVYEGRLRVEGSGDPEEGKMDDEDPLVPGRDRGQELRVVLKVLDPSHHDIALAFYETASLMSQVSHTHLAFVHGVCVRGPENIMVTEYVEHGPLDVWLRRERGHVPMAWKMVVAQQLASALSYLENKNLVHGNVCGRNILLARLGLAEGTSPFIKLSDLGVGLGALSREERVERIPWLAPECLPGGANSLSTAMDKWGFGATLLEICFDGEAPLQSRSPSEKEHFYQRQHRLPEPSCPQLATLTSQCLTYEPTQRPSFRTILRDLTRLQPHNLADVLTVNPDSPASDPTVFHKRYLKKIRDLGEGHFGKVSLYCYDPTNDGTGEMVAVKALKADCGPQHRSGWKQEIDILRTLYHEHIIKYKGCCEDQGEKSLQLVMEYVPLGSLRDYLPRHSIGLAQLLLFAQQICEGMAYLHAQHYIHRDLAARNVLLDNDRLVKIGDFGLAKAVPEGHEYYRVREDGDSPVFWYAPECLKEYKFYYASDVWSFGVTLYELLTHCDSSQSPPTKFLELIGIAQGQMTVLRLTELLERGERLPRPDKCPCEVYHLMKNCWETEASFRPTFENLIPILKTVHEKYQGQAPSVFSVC

Turning to `[2H]C([2H])([2H])NC(=O)c1cnc(NC(=O)[C@@H]2C[C@@H]2F)cc1Nc1ccc2cnn(CC)c2c1OC` (relative stereo) [Example 256, 4-((1-Ethyl-7-methoxy-1H-indazol-6-yl)amino)-6-(cis-2-fluorocyclopropanecarboxamido)-N-(methyl-d3)nicotinamide], the concentration for half-maximal inhibition (IC50) in the series with pSTAT1 came out at 256 nM; on JAK1-JH2 domain it was 10.8 nM; at TYK2-JH2 domain it was 0.265 nM. The GI50 in series [1] was 69.5 nM. The JAK1/TYK2 selectivity on TYK2-JH2 domain is listed as 40.8.

For the molecule `[2H]C([2H])([2H])NC(=O)c1nnc(NC(=O)C2CC2)cc1Nc1cccc(-c2ncn(C)n2)c1OC` [Example 41, 6-(Cyclopropanecarboxamido)-4-((2-methoxy-3-(1-methyl-1H-1,2,4-triazol-3-yl)phenyl)amino)-N-(methyl-d3)pyridazine-3-carboxamide], in series [2], the CLint scaled at 1 μM was < 17.8 mL/min/kg and the half-life at 1 μM is > 217 min.

Turning to `[2H]C([2H])([2H])NC(=O)c1nnc2cc1Nc1cc(cc(-c3ncn(C)n3)c1OC)COCc1nc(ccc1F)N2` [Example 67, 18-Fluoro-10-methoxy-N-(methyl-d3)-11-(1-methyl-1H-1,2,4-triazol-3-yl)-15-oxa-2,4,5,8,21-pentaazatetracyclo[15.3.1.1^{3,7}.1^{9,13}]tricosa-1(20),3,5,7(23),9(22),10,12,17(21),18-nonaene-6-carboxamide], the microsomal CLint at 1 μM in series [3] (setting [4]) amounted to 31.9 µL/min/mg; in series [3] (setting [6]), 7.54 µL/min/mg; in series [3] (setting [8]), 47.4 µL/min/mg. In addition, the half-life at 1 μM in series [3] (setting [5]) was 43.5 min; in series [3] (setting [7]), 184 min; in series [3] (setting [9]) it was 29.3 min; in series [2] it was > 240 min. For the same molecule, the GI50 in series [1] is 44.4 nM. The CLint scaled at 1 μM in series [2] is < 7.35 mL/min/kg.

With `[2H]C([2H])([2H])NC(=O)c1cnc(NC(=O)C2CC2)cc1Nc1nn(CC)c2ccn(CC(F)(F)F)c(=O)c12` [Example 105, 6-(Cyclopropanecarboxamido)-4-((1-ethyl-4-oxo-5-(2,2,2-trifluoroethyl)-4,5-dihydro-1H-pyrazolo[4,3-c]pyridin-3-yl)amino)-N-(methyl-d3)nicotinamide], the microsomal CLint at 1 μM in series [3] (setting [4]) stood at 10.4 µL/min/mg; in series [3] (setting [6]) it was 5.58 µL/min/mg; in series [3] (setting [8]), 45.9 µL/min/mg. Also, the half-life at 1 μM in series [3] (setting [5]) stood at 133 min; in series [3] (setting [7]) it was 249 min; in series [3] (setting [9]), 30.2 min; in series [2], 203 min. Also, the GI50 in series [1] was found to be 146 nM. For the same molecule, the half-inhibitory concentration (IC50) at TYK2-JH2 domain came to 0.733 nM. In addition, the CLint scaled at 1 μM in series [2] was 8.69 mL/min/kg.

Turning to `[2H]C([2H])([2H])NC(=O)c1cnc(NC(=O)C2CC2)cc1Nc1cn(C)c2ccn(CCO)c(=O)c12` [Example 113, 6-(Cyclopropanecarboxamido)-4-((5-(2-hydroxyethyl)-1-methyl-4-oxo-4,5-dihydro-1H-pyrrolo[3,2-c]pyridin-3-yl)amino)-N-(methyl-d3)nicotinamide], the half-inhibitory concentration (IC50) in the series on pSTAT1 worked out at 344 nM. For the same molecule, in series [1], the GI50 was determined as 2390 nM.

For `[2H]C([2H])([2H])NC(=O)c1cnc(NC(=O)C2CC2)cc1Nc1ccc2cnn(CC)c2c1OC([2H])([2H])[2H]` [Example 132, 6-(Cyclopropanecarboxamido)-4-((1-ethyl-7-(methoxy-d3)-1H-indazol-6-yl)amino)-N-(methyl-d3)nicotinamide], the microsomal CLint at 1 μM in series [3] (setting [6]) turned out to be 24 µL/min/mg. Further, in series [3] (setting [7]), the half-life at 1 μM was 57.8 min. Also, the GI50 in series [1] was 70.8 nM. Moreover, in series [2], the CLint scaled at 1 μM came to 18.9 mL/min/kg and the half-life at 1 μM was 93.1 min.

As for `[2H]C([2H])([2H])NC(=O)c1cnc(Nc2cnn(C3CC3)c2)nc1Nc1ccc2cnn(CC)c2c1OC([2H])([2H])[2H]` [Example 137, 2-((1-Cyclopropyl-1H-pyrazol-4-yl)amino)-4-((1-ethyl-7-(methoxy-d3)-1H-indazol-6-yl)amino)-N-(methyl-d3)pyrimidine-5-carboxamide], in series [1], the GI50 came to 335 nM. Besides, in series [2], the CLint scaled at 1 μM was found to be 14.4 mL/min/kg and the half-life at 1 μM was 123 min.

On to `[2H]C([2H])([2H])NC(=O)c1cnc(Nc2ccncn2)cc1Nc1cc(F)c2cnn(CC)c2c1OC` [Example 157, 4-((1-Ethyl-4-fluoro-7-methoxy-1H-indazol-6-yl)amino)-N-(methyl-d3)-6-(pyrimidin-4-ylamino)nicotinamide], for which the microsomal CLint at 1 μM in series [3] (setting [4]) was 42.1 µL/min/mg; in series [3] (setting [6]) it was 79.9 µL/min/mg; in series [3] (setting [8]) it was 106 µL/min/mg. Also, the half-life at 1 μM was 32.9 min in series [3] (setting [5]), 17.4 min in series [3] (setting [7]), 13.2 min in series [3] (setting [9]) and 127 min in series [2]. Further, the figures for the IC50 on JAK1-JH2 domain and at TYK2-JH2 domain were 25.2 nM and 0.357 nM, respectively. In series [1], the GI50 stood at 53.9 nM. Besides, on TYK2-JH2 domain, the JAK1/TYK2 selectivity was determined as 70.6. Also, the CLint scaled at 1 μM in series [2] is 13.9 mL/min/kg.

Regarding `[2H]C([2H])([2H])NC(=O)c1cnc(NC(=O)C2CC2)cc1Nc1nn(CC2CC2)c2ccn(CC(F)(F)F)c(=O)c12` [Example 203, 6-(Cyclopropanecarboxamido)-4-((1-(cyclopropylmethyl)-4-oxo-5-(2,2,2-trifluoroethyl)-4,5-dihydro-1H-pyrazolo[4,3-c]pyridin-3-yl)amino)-N-(methyl-d3)nicotinamide], the IC50 with pSTAT1 was determined as 468 nM; on JAK1-JH2 domain, 18.5 nM; at TYK2-JH2 domain it was 0.173 nM. Moreover, the GI50 in series [1] is 46.6 nM. For the same molecule, at TYK2-JH2 domain, the JAK1/TYK2 selectivity is 106.7.

With `[2H]C([2H])([2H])NC(=O)c1nnc(NC(=O)C2CC2)cc1Nc1cn(C)c2ccn(C)c(=O)c12` [Example 224, 6-(Cyclopropanecarboxamido)-4-((1,5-dimethyl-4-oxo-4,5-dihydro-1H-pyrrolo[3,2-c]pyridin-3-yl)amino)-N-(methyl-d3)pyridazine-3-carboxamide], the IC50 in the series with pSTAT1 was determined as 426 nM. For the same molecule, the GI50 in series [1] was 214 nM.

In the case of `[2H]C([2H])([2H])NC(=O)c1cnc(NC(=O)C2CC2)cc1Nc1ccn2ncc(Cl)c2c1OC` [Example 235, 4-((3-Chloro-4-methoxypyrazolo[1,5-a]pyridin-5-yl)amino)-6-(cyclopropanecarboxamido)-N-(methyl-d3)nicotinamide], the half-inhibitory concentration (IC50) was found to be 440 nM in the series on pSTAT1, 6.74 nM at JAK1-JH2 domain and 0.262 nM at TYK2-JH2 domain. In series [1], the GI50 was 44.7 nM. Besides, the JAK1/TYK2 selectivity at TYK2-JH2 domain is listed as 25.7.
